Test results from publication PMC6567099 (Journal of Enzyme Inhibition and Medicinal Chemistry, 2019).

Legend:
[1] = target: APAO (N1-acetylpolyamine oxidase) (Homo sapiens, UniProt Q6QHF9); test: luminol/HRP chemiluminescence assay of H2O2 with purified recombinant enzyme; type: biochemical
SMO (spermine oxidase) = SMO (spermine oxidase) (Homo sapiens, UniProt Q9NWM0); test: as above; type: biochemical
SMO (spermine oxidase), sequence (Q9NWM0 whole entry): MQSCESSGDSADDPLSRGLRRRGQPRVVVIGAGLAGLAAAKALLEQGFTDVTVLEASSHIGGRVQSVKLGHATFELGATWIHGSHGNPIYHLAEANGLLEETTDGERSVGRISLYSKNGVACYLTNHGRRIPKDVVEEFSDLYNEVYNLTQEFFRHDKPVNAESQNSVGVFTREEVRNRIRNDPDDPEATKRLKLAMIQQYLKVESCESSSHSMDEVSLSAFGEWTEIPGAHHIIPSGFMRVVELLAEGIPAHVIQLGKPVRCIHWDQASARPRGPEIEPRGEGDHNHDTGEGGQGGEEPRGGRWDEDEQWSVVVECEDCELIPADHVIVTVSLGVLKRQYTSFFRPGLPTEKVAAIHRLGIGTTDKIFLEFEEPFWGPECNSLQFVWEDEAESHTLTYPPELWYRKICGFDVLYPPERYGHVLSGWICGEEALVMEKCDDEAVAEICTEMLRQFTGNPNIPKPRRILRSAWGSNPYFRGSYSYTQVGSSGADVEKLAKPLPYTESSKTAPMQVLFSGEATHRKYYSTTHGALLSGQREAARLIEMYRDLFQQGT

APAO (N1-acetylpolyamine oxidase), sequence (Q6QHF9 whole entry): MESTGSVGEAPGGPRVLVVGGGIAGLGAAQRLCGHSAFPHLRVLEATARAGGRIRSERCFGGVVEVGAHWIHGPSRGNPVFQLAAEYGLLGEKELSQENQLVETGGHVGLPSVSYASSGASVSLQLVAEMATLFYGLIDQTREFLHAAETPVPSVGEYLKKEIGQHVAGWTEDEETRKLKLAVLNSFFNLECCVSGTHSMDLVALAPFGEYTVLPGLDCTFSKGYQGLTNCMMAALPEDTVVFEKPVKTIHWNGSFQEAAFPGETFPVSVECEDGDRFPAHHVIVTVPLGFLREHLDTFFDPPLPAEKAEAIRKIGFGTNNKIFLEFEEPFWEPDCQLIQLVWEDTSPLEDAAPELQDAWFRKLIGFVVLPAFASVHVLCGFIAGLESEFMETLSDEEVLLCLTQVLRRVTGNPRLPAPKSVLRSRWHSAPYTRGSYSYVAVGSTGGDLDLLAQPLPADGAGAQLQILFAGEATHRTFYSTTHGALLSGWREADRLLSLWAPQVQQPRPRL

## CN(C)CCCNCCCNC(=O)c1cccc2cccnc12 [SI-4650, N-(3-{[3-(dimethylamino)propyl]amino}propyl)-8-quinolinecarboxamide]
[1]
  IC50: 35.4 ± 0.26 µM
SMO (spermine oxidase)
  IC50: 381.8 ± 0.17 µM
